Results published in patent US10174037B2, “Dihydropyrazolopyrimidinone compounds as PDE2 inhibitors” (Merck Sharp & Dohme Corp., priority 2015, dated 2019).

Target: human PDE2A1 (Homo sapiens (Human), UniProt O00408)
Assay: PDE selectivity IMAP FP assay, human PDE2A1
Assay type: biochemical
Conditions: Human PDE2; Lab B; read-out: Human PDE2 Ki (nM) Lab B
Protocol: Selectivity for PDE2, as compared to other PDE families, was assessed using the IMAP® technology. Human PDE10A2 enzyme was prepared from cytosolic fractions of transiently transfected HEK cells.
A Labcyte POD 810 (Labcyte, Sunnyvale, Calif.) was used to dispense 200 nL from each well of the titration plate to make eleven copies of the assay plate for each titration, one copy for each PDE enzyme. A solution of each enzyme (dilution from aliquots, sufficient to produce 20% substrate conversion) and a separate solution of FAM-labeled cAMP or FAM-labeled cGMP from Molecular Devices (Sunnyvale, Calif., product # R7506 or cGMP#R7508), at a final concentration of 50 nM were made in the assay buffer (10 mM Tris HCl, pH 7.2, 10 mM MgCl2, 0.05% NaN3 0.01% Tween-20, and 1 mM DTT). Note that the substrate for PDE2 is 50 nM FAM cAMP containing 1000 nM of cGMP. The enzyme and the substrate were then added to the assay plates in two consecutive additions of 10 μL and then shaken to mix. The reaction was allowed to proceed at room temperature for 60 minutes. A binding solution was then made from the kit components, comprised of 80% Solution A, 20% Solution B and binding reagent at a volume of 1/600 the total binding solution. The enzymatic reaction was stopped by addition of 60 μL of the binding solution to each well of the assay plate. […] The plates were incubated at room temperature for one hour, then the parallel and perpendicular fluorescence was measured using a Tecan Genios Pro plate reader (Tecan, Switzerland). […] The intrinsic PDE2 inhibitory activity of a compound which may be used in accordance with the present invention may be determined by these assays. […]
The PDE2 Ki is a measure of the ability of the test compound to inhibit the action of the PDE2 enzyme.

Chain of human PDE2A1 (O00408 other isoform, or with tags, fused parts or gaps): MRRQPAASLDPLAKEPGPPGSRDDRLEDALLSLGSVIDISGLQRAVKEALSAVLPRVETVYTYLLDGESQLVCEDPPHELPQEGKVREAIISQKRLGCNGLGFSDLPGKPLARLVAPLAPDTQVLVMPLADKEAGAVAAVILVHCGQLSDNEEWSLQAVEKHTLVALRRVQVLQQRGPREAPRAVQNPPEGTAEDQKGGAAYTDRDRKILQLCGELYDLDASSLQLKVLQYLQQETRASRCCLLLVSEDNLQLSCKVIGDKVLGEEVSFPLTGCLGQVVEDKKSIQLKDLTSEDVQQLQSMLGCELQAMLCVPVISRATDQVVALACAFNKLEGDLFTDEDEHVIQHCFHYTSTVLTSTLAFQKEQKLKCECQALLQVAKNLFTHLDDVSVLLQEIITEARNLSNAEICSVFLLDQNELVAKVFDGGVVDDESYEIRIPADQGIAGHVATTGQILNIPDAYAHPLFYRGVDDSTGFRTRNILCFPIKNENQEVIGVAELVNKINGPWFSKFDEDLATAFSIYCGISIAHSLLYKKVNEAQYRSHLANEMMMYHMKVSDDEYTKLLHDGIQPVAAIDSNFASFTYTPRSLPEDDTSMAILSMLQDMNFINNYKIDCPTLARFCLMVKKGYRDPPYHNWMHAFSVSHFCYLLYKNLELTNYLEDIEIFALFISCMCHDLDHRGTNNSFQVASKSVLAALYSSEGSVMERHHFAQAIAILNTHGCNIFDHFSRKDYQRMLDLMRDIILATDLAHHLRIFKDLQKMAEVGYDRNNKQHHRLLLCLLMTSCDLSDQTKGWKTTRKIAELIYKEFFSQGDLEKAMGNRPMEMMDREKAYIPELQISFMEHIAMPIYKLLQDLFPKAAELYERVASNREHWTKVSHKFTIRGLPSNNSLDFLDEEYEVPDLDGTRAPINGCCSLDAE

Ki [nM]	SMILES
841	CC1(C(c2ccc(C(F)(F)F)c(F)c2)n2nc(CC(F)(F)F)c3c(=O)[nH]c(O)nc32)CC1 (single isomer, unassigned) [Example 249, (S)- or (R)-1-((3-Fluoro-4-(trifluoromethyl)phenyl)(1-methylcyclopropyl)methyl)-6-hydroxy-3-(2,2,2-trifluoroethyl)-1H-pyrazolo[3,4-d]pyrimidin-4(5H)-one]
702	CC1(C(c2ccc(C(F)(F)F)c(F)c2)n2nc(CO)c3c(=O)[nH]c(O)nc32)CC1 (single isomer, unassigned) [Example 16]
284	C=CC(c1ccc(C(F)(F)F)cc1)n1nc(C(F)(F)F)c2c(=O)[nH]c(O)nc21 (stereo not drawn) [Example 355, 6-Hydroxy-3-(trifluoromethyl)-1-(1-(4-(trifluoromethyl)phenyl)allyl)-1H-pyrazolo[3,4-d]pyrimidin-4(5H)-one]
1.8	CCC(c1ccc(C(F)(F)F)c(F)c1)n1nc(CF)c2c(=O)[nH]c(N(C)C)nc21 (single isomer, unassigned) [Example 223, (S)- or (R)-6-(Dimethylamino)-1-(1-(3-fluoro-4-(trifluoromethyl)phenyl)propyl)-3-(fluoromethyl)-1H-pyrazolo[3,4-d]pyrimidin-4(5H)-one]
43	O=c1[nH]c(O)nc2c1c(C(F)F)nn2C(CC(F)(F)F)c1ccc(C(F)(F)F)cc1 (single isomer, unassigned) [Example 272]
3	CC(c1ccc(C(F)(F)F)c(Cl)c1)n1nc(C(F)(F)F)c2c(=O)[nH]c(O)nc21 (single isomer, unassigned) [Example 328, (S)- or (R)-1-(1-(3-Chloro-4-(trifluoromethyl)phenyl)ethyl)-6-hydroxy-3-(trifluoromethyl)-1H-pyrazolo[3,4-d]pyrimidin-4(5H)-one]
9.3	CC(c1ccc(OC(F)(F)F)c(Cl)c1)n1nc(C(F)(F)F)c2c(=O)[nH]c(O)nc21 (single isomer, unassigned) [Example 322, (S)- or (R)-1-(1-(3-Chloro-4-(trifluoromethoxy)phenyl)ethyl)-6-hydroxy-3-(trifluoromethyl)-1H-pyrazolo[3,4-d]pyrimidin-4(5H)-one]
326	CC(c1ccc(C(C)(F)F)cc1)n1nc(C(F)(F)F)c2c(=O)[nH]c(O)nc21 (single isomer, unassigned) [Example 317, (R)- or (S)-1-(1-(4-(1,1-Difluoroethyl)phenyl)ethyl)-6-hydroxy-3-(trifluoromethyl)-1H-pyrazolo[3,4-d]pyrimidin-4(5H)-one]
3	CC(c1ccc(C(C)(F)F)cc1)n1nc(C(F)(F)F)c2c(=O)[nH]c(O)nc21 (single isomer, unassigned) [Example 318, (S)- or (R)-1-(1-(4-(1,1-Difluoroethyl)phenyl)ethyl)-6-hydroxy-3-(trifluoromethyl)-1H-pyrazolo[3,4-d]pyrimidin-4(5H)-one]
3.2	O=c1[nH]c(O)nc2c1c(C(F)(F)F)nn2C(c1ccc(C(F)(F)F)cc1)C1CC1 (single isomer, unassigned) [Example 336, (S)- or (R)-1-(Cyclopropyl(4-(trifluoromethyl)phenyl)methyl)-6-hydroxy-3-(trifluoromethyl)-1H-pyrazolo[3,4-d]pyrimidin-4(5H)-one]

More lines, now with the values behind:

SMILES	Ki [nM]
C[C@@H](c1ccc(C(F)(F)F)cc1)n1nc(CO)c2c(=O)[nH]c(NCCCCl)nc21 [Example 155, 6-[(3-Chloropropyl)amino]-3-(hydroxymethyl)-1-{(1S)-1-[4-(trifluoromethyl)-phenyl]ethyl}-1,5-dihydro-4H-pyrazolo[3,4-d]pyrimidin-4-one]	3.8
CCC(c1ccc(OC(F)F)c(F)c1)n1nc(CF)c2c(=O)[nH]c(N(C)C)nc21 (single isomer, unassigned) [Example 341, (S)- or (R)-1-(1-(4-(Difluoromethoxy)-3-fluorophenyl)propyl)-6-(dimethylamino)-3-(fluoromethyl)-1H-pyrazolo[3,4-d]pyrimidin-4(5H)-one]	0.15
CCC(c1ccc(C(F)F)cc1F)n1nc(CF)c2c(=O)[nH]c(N(C)C)nc21 (single isomer, unassigned) [Example 348, (R)- or (S)-1-(1-(4-(difluoromethyl)-2-fluorophenyl)propyl)-6-(dimethylamino)-3-(fluoromethyl)-1H-pyrazolo[3,4-d]pyrimidin-4(5H)-one]	0.03
CCC(c1ccc(C(F)(F)F)cc1)n1nc(CF)c2c(=O)[nH]c(N(C)C)nc21 (single isomer, unassigned) [Example 172, (R)- or (S)-6-(Dimethylamino)-3-(fluoromethyl)-1-(1-(4-(trifluoromethyl)phenyl)propyl)-1H-pyrazolo[3,4-d]pyrimidin-4(5H)-one]	2.2
CC(c1ccc(CC(F)(F)F)cc1)n1nc(CF)c2c(=O)[nH]c(N(C)C)nc21 (single isomer, unassigned) [Example 174, (R)- or (S)-6-(Dimethylamino)-3-(fluoromethyl)-1-(1-(4-(2,2,2-trifluoroethyl)phenyl)ethyl)-1H-pyrazolo[3,4-d]pyrimidin-4(5H)-one]	2.7
CC(c1ccc(C(C)(F)F)c(F)c1)n1nc(CF)c2c(=O)[nH]c(N(C)C)nc21 (single isomer, unassigned) [Example 211, (S)- or (R)-1-(1-(4-(1,1-Difluoroethyl)-3-fluorophenyl)ethyl)-6-(dimethylamino)-3-(fluoromethyl)-1H-pyrazolo[3,4-d]pyrimidin-4(5H)-one]	0.048
CC(c1ccc(C2CC2)cc1)n1nc(C(F)F)c2c(=O)[nH]c(O)nc21 (single isomer, unassigned) [Example 276, (S)- or (R)-1-(1-(4-Cyclopropylphenyl)ethyl)-3-(difluoromethyl)-6-hydroxy-1H-pyrazolo[3,4-d]pyrimidin-4(5H)-one]	3.6
CC(c1ccc(CC(F)F)cc1)n1nc(C(F)(F)F)c2c(=O)[nH]c(O)nc21 (single isomer, unassigned) [Example 319, (R)- or (S)-1-(1-(4-(2,2-Difluoroethyl)phenyl)ethyl)-6-hydroxy-3-(trifluoromethyl)-1H-pyrazolo[3,4-d]pyrimidin-4(5H)-one]	590
CC(c1ccc(C(F)(F)F)cc1)n1nc(CC(F)F)c2c(=O)[nH]c(O)nc21 (single isomer, unassigned) [Example 291]	2.5
CC(c1ccc(C(F)(F)F)cc1F)n1nc(CF)c2c(=O)[nH]c(N(C)C)nc21 (single isomer, unassigned) [Example 187, (S)- or (R)-6-(Dimethylamino)-1-(1-(2-fluoro-4-(trifluoromethyl)phenyl)ethyl)-3-(fluoromethyl)-1H-pyrazolo[3,4-d]pyrimidin-4(5H)-one]	19
CCC(c1ccc(CC(F)(F)F)cc1)n1nc(CO)c2c(=O)[nH]c(N(C)C)nc21 (single isomer, unassigned) [Example 98, (R)- or (S)-6-(Dimethylamino)-3-(hydroxymethyl)-1-(1-(4-(2,2,2-trifluoroethyl)phenyl)propyl)-1H-pyrazolo[3,4-d]pyrimidin-4(5H)-one]	1.3
C[C@@H](c1ccc(C(F)(F)F)cc1)n1nc(C(F)F)c2c(=O)[nH]c(N(C)C)nc21 [Example 289, (S)-3-(Difluoromethyl)-6-(dimethylamino)-1-(1-(4-(trifluoromethyl)phenyl)ethyl)-1H-pyrazolo[3,4-d]pyrimidin-4(5H)-one]	0.25
CC(C)C(c1ccc(CC(F)(F)F)cc1)n1nc(CO)c2c(=O)[nH]c(N(C)C)nc21 (single isomer, unassigned) [Example 89, (S)- or (R)-6-(Dimethylamino)-3-(hydroxymethyl)-1-(2-methyl-1-(4-(2,2,2-trifluoroethyl)phenyl)propyl)-1H-pyrazolo[3,4-d]pyrimidin-4(5H)-one]	0.21
CCC(c1ccc(C(C)(F)F)cc1F)n1nc(CF)c2c(=O)[nH]c(N(C)C)nc21 (single isomer, unassigned) [Example 215, (S)- or (R)-1-(1-(4-(1,1-Difluoroethyl)-2-fluorophenyl)propyl)-6-(dimethylamino)-3-(fluoromethyl)-1H-pyrazolo[3,4-d]pyrimidin-4(5H)-one]	0.98
CCC(c1ccc(C(F)F)cc1)n1nc(CF)c2c(=O)[nH]c(N(C)C)nc21 (single isomer, unassigned) [Example 347, (S)- or (R)-1-(1-(4-(Difluoromethyl)phenyl)propyl)-6-(dimethylamino)-3-(fluoromethyl)-1H-pyrazolo[3,4-d]pyrimidin-4(5H)-one]	0.08
CC(C)C(c1ccc(C(C)(F)F)cc1)n1nc(CO)c2c(=O)[nH]c(N)nc21 (single isomer, unassigned) [Example 357]	19
CCC(c1ccc(C(F)F)c(F)c1)n1nc(CF)c2c(=O)[nH]c(N(C)C)nc21 (single isomer, unassigned) [Example 345, (S)- or (R)-1-(1-(4-(Difluoromethyl)-3-fluorophenyl)propyl)-6-(dimethylamino)-3-(fluoromethyl)-1H-pyrazolo[3,4-d]pyrimidin-4(5H)-one]	0.13
